According to ChEMBL document CHEMBL5625167, “In vitro bioevaluation and docking study of dihydrosphingosine and ethambutol analogues against sensitive and multi-drug resistant Mycobacterium tuberculosis” (Eur J Med Chem, 2023):
≈ marks a conversion by molar mass, not a printed value. Where “and” joins values, the source holds several entries; their conditions need not be identical. Equal entries are not always repeated.

Tests used:
Format in all cases: functional
[1] = tested on: Mycobacterium tuberculosis; test: Antimycobacterial activity against isoniazid, rifampicin, ethambutol, streptomycin and levofloxacin resistant Mycobacterium tuberculosis clinical isolate 1576 incubated for 7 days by resazurin dye based colorimetric method analysis; conditions: Mycobacterium tuberculosis, 1576, 168 h; time 7 day
[2] = tested on: Mycobacterium tuberculosis; test: Synergistic antimycobacterial activity against pre-extensively drug resistant Mycobacterium tuberculosis 1576 assessed as fractional inhibitory concentration index incubated for 7 days by resazurin dye based two-dimensional micro dilution checkerboard assay in presence of rifampicin; conditions: time 7 day
[3] = tested on: Mycobacterium tuberculosis; test: Additive antimycobacterial activity against pre-extensively drug resistant Mycobacterium tuberculosis 1576 incubated for 7 days by resazurin dye based two-dimensional micro dilution checkerboard assay in presence of amikacin; conditions: time 7 day
[4] = tested on: Mycobacterium tuberculosis; test: Additive antimycobacterial activity against pre-extensively drug resistant Mycobacterium tuberculosis 1576 assessed as fractional inhibitory concentration index incubated for 7 days by resazurin dye based two-dimensional micro dilution checkerboard assay in presence of amikacin; conditions: time 7 day
[5] = tested on: Mycobacterium tuberculosis; test: Antimycobacterial activity against pre-extensively drug resistant Mycobacterium tuberculosis 1576 assessed as reduction in CFU count at 8 uM measured after 12 days relative to control; set-up: scale not given: the % may be the effect or the level left; conditions: time 12 day
[6] = tested on: Mycobacterium tuberculosis; test: Synergistic antimycobacterial activity against pre-extensively drug resistant Mycobacterium tuberculosis 1576 incubated for 7 days by resazurin dye based two-dimensional micro dilution checkerboard assay in presence of rifampicin; conditions: time 7 day
[7] = tested on: Mycobacterium tuberculosis; test: Additive antimycobacterial activity against pre-extensively drug resistant Mycobacterium tuberculosis 1576 assessed as fractional inhibitory concentration index incubated for 7 days by resazurin dye based two-dimensional micro dilution checkerboard assay in presence of isoniazid; conditions: time 7 day
[8] = tested on: Mycobacterium tuberculosis; test: Additive antimycobacterial activity against pre-extensively drug resistant Mycobacterium tuberculosis 1576 assessed as fractional inhibitory concentration index incubated for 7 days by resazurin dye based two-dimensional micro dilution checkerboard assay in presence of ethambutol; conditions: time 7 day
[9] = tested on: Mycobacterium tuberculosis; test: Antimycobacterial activity against pre-extensively drug resistant Mycobacterium tuberculosis 1576 assessed as reduction in CFU count at 8 uM in presence of rifampicin measured after 12 days relative to control; set-up: scale not given: the % may be the effect or the level left; conditions: time 12 day
[10] = tested on: Mycobacterium tuberculosis; test: Additive antimycobacterial activity against pre-extensively drug resistant Mycobacterium tuberculosis 1576 incubated for 7 days by resazurin dye based two-dimensional micro dilution checkerboard assay in presence of isoniazid; conditions: time 7 day
[11] = tested on: Mycobacterium tuberculosis; test: Additive antimycobacterial activity against pre-extensively drug resistant Mycobacterium tuberculosis 1576 incubated for 7 days by resazurin dye based two-dimensional micro dilution checkerboard assay in presence of ethambutol; conditions: time 7 day
[12] = tested on: Mycobacterium tuberculosis; test: Additive antimycobacterial activity against pre-extensively drug resistant Mycobacterium tuberculosis 1576 assessed as fractional inhibitory concentration index incubated for 7 days by resazurin dye based two-dimensional micro dilution checkerboard assay in presence of levofloxacin; conditions: time 7 day
[13] = tested on: Mycobacterium tuberculosis; test: Additive antimycobacterial activity against pre-extensively drug resistant Mycobacterium tuberculosis 1576 incubated for 7 days by resazurin dye based two-dimensional micro dilution checkerboard assay in presence of levofloxacin; conditions: time 7 day
[14] = tested on: Mycobacterium tuberculosis; test: Synergistic antimycobacterial activity against pre-extensively drug resistant Mycobacterium tuberculosis 1576 assessed as reduction in concentration required to inhibit bacterial growth incubated for 7 days by resazurin dye based two-dimensional micro dilution checkerboard assay in presence of rifampicin relative to control; set-up: scale not given: the % may be the effect or the level left; conditions: time 7 day
[15] = tested on: Mycobacterium tuberculosis; test: Antimycobacterial activity against pre-extensively drug resistant Mycobacterium tuberculosis 1576 incubated for 7 days by resazurin dye based two-dimensional micro dilution checkerboard assay in presence of rifampicin; conditions: time 7 day
[16] = tested on: Mycobacterium tuberculosis; test: Additive antimycobacterial activity against pre-extensively drug resistant Mycobacterium tuberculosis 1576 assessed as fractional inhibitory concentration index incubated for 48 hrs by micro dilution checkerboard assay in presence of rifampicin
[17] = tested on: Mycobacterium tuberculosis; test: Antimycobacterial activity against pre-extensively drug resistant Mycobacterium tuberculosis 1576 assessed as fractional inhibitory concentration index incubated for 7 days by resazurin dye based two-dimensional micro dilution checkerboard assay in presence of rifampicin; conditions: time 7 day
[18] = tested on: Mycobacterium tuberculosis; test: Antimycobacterial activity against pre-extensively drug resistant Mycobacterium tuberculosis 1576 incubated for 7 days by resazurin dye based two-dimensional micro dilution checkerboard assay in presence of 2-aminoheptadecan-1-ol; conditions: time 7 day
[19] = tested on: Mycobacterium tuberculosis; test: Antimycobacterial activity against pre-extensively drug resistant Mycobacterium tuberculosis 1576 incubated for 7 days by resazurin dye based two-dimensional micro dilution checkerboard assay in presence of 1-((3,4,5-trimethoxybenzyl)oxy)heptadecan-2-amine; conditions: time 7 day
[20] = tested on: Mycobacterium tuberculosis; test: Antimycobacterial activity against pre-extensively drug resistant Mycobacterium tuberculosis 1576 incubated for 7 days by resazurin dye based two-dimensional micro dilution checkerboard assay in presence of 1-(benzyloxy)heptadecan-2-amine; conditions: time 7 day

CCCCCCCCCCCC(CO)NCC (configuration not stated)
MIC [1]: 64 µM (≈ 15.6 µg/mL)

CCCCc1ccc(CCCCCCCCCC(N)CO)cc1 (configuration not stated)
MIC [1]: 2 µM (≈ 0.639 µg/mL)

CCCCCCCCCCCCCCCCCC(N)CO (configuration not stated)
MIC [1]: 8 µM (≈ 2.4 µg/mL)

CCCCc1ccc(CCCCCC(N)CO)cc1 (configuration not stated)
MIC [1]: 64 µM (≈ 16.9 µg/mL)

CCCCc1ccc(CCCCCCCCCC(CO)NC(=O)OC(C)(C)C)cc1 (configuration not stated)
MIC [1]: 16 µM (≈ 6.71 µg/mL)

CCCCCCCCCCCC(N)CO (configuration not stated)
MIC [1]: 32 µM (≈ 6.89 µg/mL)

CCCCCCCCCCCCCCCCCCCC(CO)N(CC)CC (configuration not stated)
MIC [1]: > 64 µM

CCCCCCCCCCCCCCCC(CNCCCCCC)NC(=O)OC(C)(C)C (configuration not stated)
MIC [1]: 8 µM (≈ 3.64 µg/mL)

CCCCCCCCCCCCCCCC(N)CN (configuration not stated)
MIC [1]: 390 µM (≈ 105 µg/mL)

CCCCCCCCCCCCCCCC(N)COCc1cc(OC)c(OC)c(OC)c1 (configuration not stated)
fractional inhibitory concentration index (FICI) [2]: 0.5 | FIC [3]: 0.5 | fractional inhibitory concentration index (FICI) [4]: 0.75 | MIC [1]: 8 µM (≈ 3.61 µg/mL) | Activity [5]: >99.9% | FIC [6]: 0.25 | fractional inhibitory concentration index (FICI) [7]: 1 | fractional inhibitory concentration index (FICI) [8]: 0.75 | Activity [9]: >=99.9% | FIC [10]: 0.5 | FIC [11]: 0.5 | fractional inhibitory concentration index (FICI) [12]: 1 | FIC [13]: 0.5 | Activity [14]: 75%

CCCCc1ccc(CCCCCC(CO)NC(=O)OC(C)(C)C)cc1 (configuration not stated)
MIC [1]: 16 µM (≈ 5.82 µg/mL)

CCCCCCCCCCCCCCCCCC(N)COCc1ccccc1 (configuration not stated)
MIC [1]: 64 µM (≈ 24.9 µg/mL)

CCCCCCCCCCCCCCCC(N)CO (configuration not stated)
FIC [15]: 0.5 | FIC [3]: 0.5 | fractional inhibitory concentration index (FICI) [4]: 0.75 | MIC [1]: 3.03 µM (≈ 0.823 µg/mL) | fractional inhibitory concentration index (FICI) [16]: 0.53 | fractional inhibitory concentration index (FICI) [17]: 0.53 | fractional inhibitory concentration index (FICI) [7]: 0.63 | fractional inhibitory concentration index (FICI) [8]: 0.75 | FIC [10]: 0.5 | FIC [11]: 0.5 | fractional inhibitory concentration index (FICI) [12]: 1 | FIC [13]: 0.5

CCCCCCCCCCCCCCCCCCCC(CNCC)NC(=O)OC(C)(C)C (configuration not stated)
MIC [1]: 4 µM (≈ 1.82 µg/mL)

CCCCCCCCCCCCCCCC(CO)NCCCCCC (configuration not stated)
MIC [1]: 64 µM (≈ 22.8 µg/mL)

CCCCCCCCCCCC(CO)N(CC)CC (configuration not stated)
MIC [1]: 32 µM (≈ 8.69 µg/mL)

CCCCc1ccc(CCCCCCCC(N)CO)cc1 (configuration not stated)
MIC [1]: 2 µM (≈ 0.583 µg/mL)

CCCCCCCCCCCCCCCCCCCC(CN)NC(=O)OC(C)(C)C (configuration not stated)
MIC [1]: 64 µM (≈ 27.3 µg/mL)

CCCCCCCCCCCCCCCC(CNCC)NC(=O)OC(C)(C)C (configuration not stated)
MIC [1]: 16 µM (≈ 6.38 µg/mL)

CCCCCCCCCCCCCCCC(CO)N(CCCC)CCCC (configuration not stated)
MIC [1]: 8 µM (≈ 3.07 µg/mL)

CCCCCCCCCCCCCCCCCCCC(N)COCc1ccccc1 (configuration not stated)
MIC [1]: 32 µM (≈ 13.4 µg/mL)

CCCCCCCCCCCCCCCC(CO)N(CC)CC (configuration not stated)
MIC [1]: 32 µM (≈ 10.5 µg/mL)

CCCCCCCCCCCCCCCC(N)COCc1ccccc1 (configuration not stated)
FIC [15]: 0.5 | FIC [3]: 0.5 | fractional inhibitory concentration index (FICI) [4]: 0.63 | MIC [1]: 4.5 µM (≈ 1.63 µg/mL) | fractional inhibitory concentration index (FICI) [16]: 0.56 | fractional inhibitory concentration index (FICI) [17]: 0.56 | fractional inhibitory concentration index (FICI) [7]: 0.63 | fractional inhibitory concentration index (FICI) [8]: 1.5 | FIC [10]: 0.5 | FIC [11]: 0.5 | fractional inhibitory concentration index (FICI) [12]: 1 | FIC [13]: 0.5

CCCCCCCCCCCCCCCCCC(CN)NC(=O)OC(C)(C)C (configuration not stated)
MIC [1]: 16 µM (≈ 6.38 µg/mL)

CCCCCCCCCCCC(CO)NCCCC (configuration not stated)
MIC [1]: 32 µM (≈ 8.69 µg/mL)

CCCCCCCCCCCC(CNCC)NC(=O)OC(C)(C)C (configuration not stated)
MIC [1]: 64 µM (≈ 21.9 µg/mL)

CCCCCCCCCCCCCCCC(N)CNCC (configuration not stated)
MIC [1]: 16 µM (≈ 4.78 µg/mL)

CCCCCCCCCCCCCCCCCC(COCc1ccccc1)NCCCCCC (configuration not stated)
MIC [1]: 64 µM (≈ 30.3 µg/mL)

CCCCCCCCCCCCCCCCCC(CO)NCCCC (configuration not stated)
MIC [1]: 32 µM (≈ 11.4 µg/mL)

CCCCCCCCCCCCCCCC(CN)NC(=O)OC(C)(C)C (configuration not stated)
MIC [1]: 17.6 µM (≈ 6.52 µg/mL)

CCCCCCCCCCCCCCCC(CN=[N+]=[N-])NC(=O)OC(C)(C)C (configuration not stated)
MIC [1]: 16 µM (≈ 6.35 µg/mL)

CCCCc1ccc(CCCCCCCC(CO)NC(=O)OC(C)(C)C)cc1 (configuration not stated)
MIC [1]: 16 µM (≈ 6.27 µg/mL)

CCCCCCCCCCCCCCCC(CNCCCC)NC(=O)OC(C)(C)C (configuration not stated)
MIC [1]: 8 µM (≈ 3.41 µg/mL)

CCCCCCCCCCCCCCCCCC(CO)NCC (configuration not stated)
MIC [1]: 16 µM (≈ 5.24 µg/mL)

CCCCCCCCCCCCCCCC(CO)NCCCC (configuration not stated)
MIC [1]: 64 µM (≈ 21 µg/mL)

CCCCCCCCCCCCCCCC(COCc1ccccc1)NCC (configuration not stated)
MIC [1]: 16 µM (≈ 6.23 µg/mL)

CCCCCCCCCCCCCCCC(CO)NCC (configuration not stated)
MIC [1]: 32 µM (≈ 9.59 µg/mL)

CCCCCCCCCCCCCCCC(CNCC(=O)OCC)NC(=O)OC(C)(C)C (configuration not stated)
MIC [1]: 32 µM (≈ 14.6 µg/mL)

CCCCCCCCCCCCCCCC(CO)NCCCCCCCCCC (configuration not stated)
MIC [1]: 64 µM (≈ 26.4 µg/mL)

CCCCCCCCCCCCCCCCCC(CO)N(CC)CC (configuration not stated)
MIC [1]: > 64 µM

CCCCCCCCCCCCCCCC(COCc1ccccc1)NCCCCCC (configuration not stated)
MIC [1]: 64 µM (≈ 28.5 µg/mL)

CCCCCCCCCCCCCCCCCCCC(COCc1ccccc1)NCC (configuration not stated)
MIC [1]: 16 µM (≈ 7.13 µg/mL)

NCC[C@H](O)C(=O)N[C@@H]1C[C@H](N)[C@@H](O[C@H]2O[C@H](CN)[C@@H](O)[C@H](O)[C@H]2O)[C@H](O)[C@H]1O[C@H]1O[C@H](CO)[C@@H](O)[C@H](N)[C@H]1O [AMIKACIN]
FIC [18]: 0.25 | MIC [1]: 0.8 µM and 0.63 µg/mL | FIC [19]: 0.25 | FIC [20]: 0.125

CC[C@@H](CO)NCCN[C@@H](CC)CO [ETHAMBUTOL]
FIC [18]: 0.25 | MIC [1]: 28.8 µM and 8 µg/mL | FIC [19]: 0.25 | FIC [20]: 1

NNC(=O)c1ccncc1 [ISONIAZID]
FIC [18]: 0.125 | MIC [1]: 934 µM and 128 µg/mL | FIC [19]: 0.5 | FIC [20]: 0.125

C[C@H]1COc2c(N3CCN(C)CC3)c(F)cc3c(=O)c(C(=O)O)cn1c23 [LEVOFLOXACIN ANHYDROUS]
FIC [18]: 0.5 | MIC [1]: 5.5 µM and 2 µg/mL | FIC [19]: 0.5 | FIC [20]: 0.5

CO[C@H]1/C=C/O[C@@]2(C)Oc3c(C)c(O)c4c(O)c(c(/C=N/N5CCN(C)CC5)c(O)c4c3C2=O)NC(=O)/C(C)=C\C=C\[C@H](C)[C@H](O)[C@@H](C)[C@@H](O)[C@@H](C)[C@H](OC(C)=O)[C@@H]1C [RIFAMPIN]
FIC [18]: 0.031 | MIC [1]: 78 µM and 64 µg/mL | FIC [19]: 0.25 | FIC [20]: 0.063
